ChEMBL document CHEMBL5500420, “Discovery of BI-9508, a Brain-Penetrant GPR88-Receptor-Agonist Tool Compound for In Vivo Mouse Studies” (J Med Chem, 2024)
Converted amounts (≈) assume the structure as drawn.

Columns and labels:
[1] = target: G protein-coupled receptor 88 (Homo sapiens, UniProt Q9GZN0); assay: Agonist activity at human GPR88 transfected in HEK293 cells incubated for 10 mins by Gi1 BRET assay
[2] = target: T1, G protein-coupled receptor 88 (Mus musculus, UniProt Q9EPB7); assay: Agonist activity at mouse GPR88 transfected in HEK293 cells incubated for 10 mins by Gi1 BRET assay; format: functional, cell-based
T1 sequence (Q9EPB7 whole entry): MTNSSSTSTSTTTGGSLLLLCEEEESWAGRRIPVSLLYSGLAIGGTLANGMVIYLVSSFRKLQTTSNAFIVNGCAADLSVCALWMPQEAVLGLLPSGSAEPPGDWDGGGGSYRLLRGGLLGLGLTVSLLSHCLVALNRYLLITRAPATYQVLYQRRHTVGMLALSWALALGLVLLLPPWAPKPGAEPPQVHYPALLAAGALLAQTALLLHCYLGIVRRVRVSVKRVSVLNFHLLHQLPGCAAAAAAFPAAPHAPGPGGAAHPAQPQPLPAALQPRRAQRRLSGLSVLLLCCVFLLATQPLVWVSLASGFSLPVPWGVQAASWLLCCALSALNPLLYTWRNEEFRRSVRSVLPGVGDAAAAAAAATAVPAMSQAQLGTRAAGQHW

[3] = target: T1, G protein-coupled receptor 88; assay: Agonist activity at GPR88 in wildtype mouse striatal membrane assessed as stimulation of [35S]-GTPgammaS binding incubated for 1 hrs in presence of GDP by liquid scintillation counter
[4] = Protein binding in mouse plasma at 1 uM incubated for 2 hrs by equilibrium dialysis based HPLC-MS/MS analysis; format: ADME, cell-free; conditions: read-out: PPB (converted)
[5] = Solubility of compound at pH 7 by high-throughput analysis; format: physicochemical; conditions: buffer
P-gp = assay: Apparent permeability in P-gp overexpressing MDCK-MDR1 cells at 1 uM incubated upto 2 hrs; format: ADME, cell-based, Canis lupus familiaris; conditions: dog

Chain of G protein-coupled receptor 88 (Homo sapiens, UniProt Q9GZN0) (Q9GZN0 whole entry): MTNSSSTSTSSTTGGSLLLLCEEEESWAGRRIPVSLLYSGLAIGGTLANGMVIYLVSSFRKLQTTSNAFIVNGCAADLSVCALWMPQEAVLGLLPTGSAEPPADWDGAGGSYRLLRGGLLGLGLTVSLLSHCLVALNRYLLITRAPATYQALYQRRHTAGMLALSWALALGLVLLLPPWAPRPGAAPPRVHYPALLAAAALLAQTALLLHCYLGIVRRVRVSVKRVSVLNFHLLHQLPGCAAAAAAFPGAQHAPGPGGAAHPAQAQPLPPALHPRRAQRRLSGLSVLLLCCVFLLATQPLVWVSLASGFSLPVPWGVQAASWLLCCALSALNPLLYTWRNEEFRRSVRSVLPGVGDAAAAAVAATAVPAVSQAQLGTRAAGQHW

COc1cc(-c2ccc(OC(C)C)cc2)ccc1N(C[C@@H](N)[C@@H](C)OC)C(=O)[C@@H]1C[C@H]1c1ccncn1
EC50 [1]: 0.168 µM | EC50 [2]: 0.226 µM | EC50 [3]: 6.1 µM

CC(C)Oc1ccc(-c2ccc(N(CCOC(F)F)C(=O)[C@@H]3C[C@H]3c3ccncn3)c3ncnn23)cc1
fraction unbound at 2 h, 1 µM [4]: 0.062 | solubility [5]: 11 µg/mL (≈ 21.6 µM)

CO[C@H](C)[C@H](N)CN(C(=O)[C@@H]1C[C@H]1c1ccncn1)c1ccc(-c2ccc(OC(C)C)cc2)cc1
EC50 [1]: > 99 µM

CO[C@H](C)[C@H](N)CN(C(=O)[C@@H]1C[C@H]1c1ccncn1)c1ccc(-c2ccc(OC(C)C)nc2)cc1
fraction unbound at 2 h, 1 µM [4]: 0.052

Cc1nnc2n1-c1sc(CCC(=O)N3CCOCC3)cc1C(c1ccccc1Cl)=NC2 [APAFANT]
Papp at 2 h, 1 µM (P-gp): 3 ×10⁻⁶ cm/s

CC(C)Oc1ccc(-c2ccc(N(CCOC(F)F)C(=O)[C@@H]3C[C@H]3c3ccncn3)c3c2cnn3C)cc1
EC50 [2]: 0.094 µM

COc1cc(-c2ccc(O[C@@H](C)C(F)(F)F)nc2)ccc1N(CCOC(F)F)C(=O)[C@@H]1C[C@H]1c1ccncn1
fraction unbound at 2 h, 1 µM [4]: 0.004
